This note sets out measurements from US4556671A, “Pharmaceutical formulations” (Burroughs Wellcome Co., priority 1981, dated 1985).

≈ marks a conversion by molar mass, not a printed value. Like-named read-outs stand apart in the source and are kept apart here.

In general, ED50 refers to the midpoint of the dose-response relation.

The subject of one assay is mice. In words: PBQ-Induced Algesia. The format is in vivo. Particulars: Mus musculus, po, read-out: ED50 (reduction of number of stretches by 50%). Here is the method: An irritant, p-phenylbenzquinone (PBQ), was administered to mice intraperitoneally at a dose of 5 mg/kg to elicit a stretch-reflex in the animal. The number of stretches in 25 minute period were counted.

The next assay deals with Female Wistar rats. As to the kind of experiment: Acute Anti-inflammatory Activity: Carrageenin Test. The format is in vivo, rat. How it is done: Female Wistar rats (100-150 g, groups of 5) were starved for approximately 24 hours prior to testing and througout the experimental period. Water was available ad. lib. […] A control group received Celacol alone. Immediately after dosing, each rat received, in a plantar area of the left hind foot, an injection of 0.1 ml of the supernatant of a 30 mg/ml suspension of carrageenin in 0.9% saline. The thickness of the foot was measured with calipers 1 hour and 4 hours after the carrageenin injection. The increases in foot thickness during this time was compared with those of the control group and the percentage reduction in swelling calculated for each tested group.

A further assay concerns Prostaglandin. As to the kind of experiment: Carrageenin-impregnated sponge inflammatory exudates: prostaglandin concentration. The format is in vivo, rat. Particulars: 24 hours. How it is done: (§1) The sponges were removed after 24 hours, immersed in 5 ml herparinised saline and squeezed until dry.
Another assay concerns Leukocyte Migration. In words: Carrageenin-impregnated sponge inflammatory exudates: leukocyte migration. The format is in vivo, rat. The settings on record: 24 hours. How it is done:
as §1

A further assay deals with HETE. In words: Production of HETE (enzyme assay, Blackwell and Flower). It counts as biochemical. Particulars: 100 μg/ml.
The next assay addresses lipoxygenase. In words: Inhibition of Lipoxygenase (enzyme assay, Blackwell and Flower). It counts as biochemical.
Assay [1] relates to cyclo-oxygenase and lipoxygenase.
The mark [2] stands for this setting: 30 mins prior to PBQ 5 mg/kg intraperitoneally, stretches in 25 minutes.
Where [3] appears, read: rat, oral, suspension in 0.25% Celacol, reduction in foot swelling 1 to 4 hours after carrageenin, read-out: ED50.

For the molecule `CC(=O)Oc1ccccc1C(=O)O` [Aspirin, reference compound], the ED50 with mice was found to be 70 mg/kg; in the assay with Female Wistar rats (Rattus norvegicus, po, 4 h) it was 70 mg/kg.
`C[C@@H]1C[C@H]2[C@@H]3CCC4=CC(=O)C=C[C@]4(C)[C@@]3(F)[C@@H](O)C[C@]2(C)[C@@]1(O)C(=O)CO` [Dexamethasone]: the “Reduction of Prostaglandin Concentration” value is on record as 64% ± 6 with Prostaglandin (0.1 mg/kg i.m., s.e.m) and ~ 30% in the assay with Prostaglandin (0.1 mg/kg p.o.). For the same molecule, the “Inhibition of Leukocyte Migration” value in the assay on Leukocyte Migration (0.1 mg/kg i.m., s.e.m) is reported as 62% ± 17; in the assay on Leukocyte Migration (0.1 mg/kg p.o.), ~ 30%.
In the case of `NC1=NN(c2cccc(C(F)(F)F)c2)CC1` [Example 1, 3-Amino-1-(m-trifluoromethylphenyl)pyrazol-2-ine], the “reduction of the production of HETE” value in the assay on HETE was “less than 20%”. The ED50 in the assay on mice (setting [2]) is 20.6 mg/kg; with Female Wistar rats (setting [3]), 11 mg/kg. The “IC50 (lipoxygenase)” value at lipoxygenase is 0.72 µg/mL (≈ 3.14 µM). Also, the “inhibition of cyclo-oxygenase and lipoxygenase activity (in words)” value in assay [1] was “equally active in inhibiting cyclo-oxygenase and lipoxygenase activity”. In addition, the “doses at which cyclo-oxygenase and lipoxygenase are inhibited (in words)” value in assay [1] (compared with the other heterocyclic compounds of formula (I)) was “at doses substantially below those of the other heterocyclic compounds of formula (I)”. Besides, in the assay with Leukocyte Migration (50 mg/kg p.o., s.e.m), the “Inhibition of Leukocyte Migration” value is recorded as 73% ± 9.
Regarding `NC1=NN(c2ccc(Cl)cc2)CC1` [Example 6, 3-Amino-1-p-chlorophenyl-2-pyrazoline], the ED50 was found to be 13 mg/kg in the assay on mice (setting [2]) and 22 mg/kg in the assay with Female Wistar rats (setting [3]).
For `NC1=NN(c2ccccc2)CC1` [Example 7, 3-Amino-1-phenyl-2-pyrazoline], in the assay with Female Wistar rats (setting [3]), the ED50 is 60 mg/kg.
The same measure, in the same setting: the result for `CC1CC(N)=NN1c1ccc(Cl)cc1.Cl` (centres unmarked) [Example 24, 3-Amino-1-p-chlorophenyl-5-methyl-2-pyrazoline hydrochloride] reads 36 mg/kg.
Regarding `COc1ccc2c(c1)c(CC(=O)O)c(C)n2C(=O)c1ccc(Cl)cc1` [Indomethacin], the “Reduction of Prostaglandin Concentration” value in the assay on Prostaglandin (4 mg/kg p.o.) was determined as 98%. Moreover, the “Inhibition of Leukocyte Migration” value in the assay on Leukocyte Migration (4 mg/kg p.o., s.e.m) is 26% ± 7.
For the molecule `CCCCC1C(=O)N(c2ccccc2)N(c2ccccc2)C1=O` [Phenylbutazone, reference compound], the ED50 with Female Wistar rats (setting [3]) worked out at 22 mg/kg.
